Test results: patent US4619925A, “3-Propenyl cephalosporin derivatives” (priority 1985, dated 1986)
Values after ≈ are worked out from the molar mass of the structure shown. Where two headings read alike, the source gives them in different places.

Experiments:
Mouse urinary recovery = format: in vivo, mice; conditions: mouse, urine, po, 20 mg/kg; for dose excreted at 24 h: p.o.
S. pneumoniae A20759 = experiment: In vitro activity against fastidious bacteria; format: cell-based; conditions: Streptococcus pneumoniae, A20759
Source text: (§1) Table 5 contains comparative data for in vitro antibacterial activity against fastidious bacteria.

H. influenzae A20177 = experiment: In vitro activity against fastidious bacteria; format: cell-based; conditions: Haemophilus influenzae, A20177
Source text: as §1

N. meningitidis A20048 = experiment: In vitro activity against fastidious bacteria; format: cell-based; conditions: Neisseria meningitidis, A20048
Source text: as §1

N. gonorrheae A20143 = experiment: In vitro activity against fastidious bacteria; format: cell-based
Source text: as §1

H. influenzae A9729 = experiment: In vitro activity against fastidious bacteria; format: cell-based; conditions: Haemophilus influenzae, A9729
Source text: as §1

H. influenzae A9833 = experiment: In vitro activity against fastidious bacteria; format: cell-based; conditions: Haemophilus influenzae, A9833
Source text: as §1

S. pyogenes A20065 = experiment: In vitro activity against fastidious bacteria; format: cell-based; conditions: Streptococcus pyogenes, A20065
Source text: as §1

S. pneumoniae Type II = experiment: In vitro activity against fastidious bacteria; format: cell-based; conditions: Streptococcus pneumoniae
Source text: as §1

S. pyogenes A20201 = experiment: In vitro activity against fastidious bacteria; format: cell-based; conditions: Streptococcus pyogenes, A20201
Source text: as §1

S. pyogenes s-23 = experiment: In vitro activity against fastidious bacteria; format: cell-based; conditions: Streptococcus pyogenes, S23
Source text: as §1

N. meningitidis A21487 = experiment: In vitro activity against fastidious bacteria; format: cell-based; conditions: Neisseria meningitidis, A21487
Source text: as §1

H. influenzae A20193 = experiment: In vitro activity against fastidious bacteria; format: cell-based; conditions: Haemophilus influenzae, A20193
Source text: as §1

S. pneumoniae A9585 = experiment: In vitro activity against fastidious bacteria; format: cell-based; conditions: Streptococcus pneumoniae, A9585
Source text: as §1

N. gonorrheae A20155 = experiment: In vitro activity against fastidious bacteria; format: cell-based
Source text: as §1

S. pyogenes A9604 = experiment: In vitro activity against fastidious bacteria; format: cell-based; conditions: Streptococcus pyogenes, A9604
Source text: as §1

N. gonorrheae A15112 = experiment: In vitro activity against fastidious bacteria; format: cell-based
Source text: as §1

N. meningitidis A21495 = experiment: In vitro activity against fastidious bacteria; format: cell-based; conditions: Neisseria meningitidis, A21495
Source text: as §1

H. influenzae A22482 = experiment: In vitro activity against fastidious bacteria; format: cell-based; conditions: Haemophilus influenzae, A22482
Source text: as §1

H. influenzae A21523 = experiment: In vitro activity against fastidious bacteria; format: cell-based; conditions: Haemophilus influenzae, A21523
Source text: as §1

S. pneumoniae A15069 = experiment: In vitro activity against fastidious bacteria; format: cell-based; conditions: Streptococcus pneumoniae, A15069
Source text: as §1

N. gonorrheae A20154 = experiment: In vitro activity against fastidious bacteria; format: cell-based
Source text: as §1

S. pyogenes Dick = experiment: In vitro activity against fastidious bacteria; format: cell-based; conditions: Streptococcus pyogenes
Source text: as §1

S. pyogenes A15040 = experiment: In vitro activity against fastidious bacteria; format: cell-based; conditions: Streptococcus pyogenes, A15040
Source text: as §1

H. influenzae A22483 = experiment: In vitro activity against fastidious bacteria; format: cell-based; conditions: Haemophilus influenzae, A22483
Source text: as §1

N. meningitidis A21497 = experiment: In vitro activity against fastidious bacteria; format: cell-based; conditions: Neisseria meningitidis, A21497
Source text: as §1

E. coli Juhl [1] = experiment: Protective dose for mice infected with lethal inoculum; format: in vivo; conditions: 50% survival after five days
Source text: (§2) The data in Table 2 are results of protective doses (PD50) for mice infected with a lethal inoculum of bacteria. Two different bacteria were employed in the studies, one a Gram-positive organism (S. aureus Smith) and the other a Gram-negative organism (E. coli Juhl). The PD50 is that dose which, when administered to a group of injected mice, results in 50% survival after five days. Normally untreated infected mice die within three days following injection of the lethal inoculum.

S. aureus Smith [2] = experiment: as above; format: in vivo; conditions: po, 50% survival after five days
Source text: as §2

E. coli A20341-1 = experiment: MIC, agar dilution technique (Mueller-Hinton Agar); format: cell-based; conditions: Escherichia coli, A203411, read-out: Minimum Inhibitory Concentration
Source text: (§3) Each of these groups of organisms is constituted of five individual strains of microorganism. The Gp-Ia organisms are Gram-positive staphylococci which are sensitive to penicillin. The Gp-Ib organisms are Gram-positive staphylococci which are resistant to penicillin and produce penicillinase. The Gn-Ia organisms are Gram-negative bacteria which are sensitive to ampicillin and cephalothin. The Gn-Ib organisms are Gram-negative bacteria which are resistant to ampicillin and cephalothin.

E. coli A15148 = experiment: MIC, agar dilution technique (Mueller-Hinton Agar); format: cell-based; conditions: Escherichia coli, A15148, read-out: Minimum Inhibitory Concentration
Source text: as §3

E. coli Juhl [3] = experiment: MIC, agar dilution technique (Mueller-Hinton Agar); format: cell-based; conditions: Escherichia coli, read-out: Minimum Inhibitory Concentration
Source text: as §3

K. pneumoniae A20346 = experiment: MIC, agar dilution technique (Mueller-Hinton Agar); format: cell-based; conditions: Klebsiella pneumoniae, A20346, read-out: Minimum Inhibitory Concentration
Source text: as §3

S. aureus A9602 = experiment: MIC, agar dilution technique (Mueller-Hinton Agar); format: cell-based; conditions: Staphylococcus aureus, A9602, read-out: Minimum Inhibitory Concentration
Source text: as §3

S. aureus A9497 = experiment: MIC, agar dilution technique (Mueller-Hinton Agar); format: cell-based; conditions: Staphylococcus aureus, Gp-Ia, penicillin sensitive, read-out: Minimum Inhibitory Concentration
Source text: as §3

S. aureus BX-1633-2 = experiment: MIC, agar dilution technique (Mueller-Hinton Agar); format: cell-based; conditions: Staphylococcus aureus, BX16332, read-out: Minimum Inhibitory Concentration
Source text: as §3

S. aureus Smith [4] = experiment: MIC, agar dilution technique (Mueller-Hinton Agar); format: cell-based; conditions: Staphylococcus aureus, Gp-Ia, penicillin sensitive, read-out: Minimum Inhibitory Concentration
Source text: as §3

E coli RGN-823 = experiment: MIC, agar dilution technique (Mueller-Hinton Agar); format: cell-based; conditions: Escherichia coli, RGN823, Gn-Ib, ampicillin and cephalothin resistant, read-out: Minimum Inhibitory Concentration
Source text: as §3

S. aureus A15092 = experiment: MIC, agar dilution technique (Mueller-Hinton Agar); format: cell-based; conditions: Staphylococcus aureus, Gp-Ib, penicillin resistant, read-out: Minimum Inhibitory Concentration
Source text: as §3

E. coli A9660 = experiment: MIC, agar dilution technique (Mueller-Hinton Agar); format: cell-based; conditions: Escherichia coli, A9660, read-out: Minimum Inhibitory Concentration
Source text: as §3

K. pneumoniae D11 = experiment: MIC, agar dilution technique (Mueller-Hinton Agar); format: cell-based; conditions: Klebsiella pneumoniae, D11, read-out: Minimum Inhibitory Concentration
Source text: as §3

S. aureus Russell = experiment: MIC, agar dilution technique (Mueller-Hinton Agar); format: cell-based; conditions: Staphylococcus aureus, read-out: Minimum Inhibitory Concentration
Source text: as §3

S. aureus Terajima = experiment: MIC, agar dilution technique (Mueller-Hinton Agar); format: cell-based; conditions: Staphylococcus aureus, Gp-Ia, penicillin sensitive, read-out: Minimum Inhibitory Concentration
Source text: as §3

S. aureus No. 193 = experiment: MIC, agar dilution technique (Mueller-Hinton Agar); format: cell-based; conditions: Staphylococcus aureus, Gp-Ib, penicillin resistant, read-out: Minimum Inhibitory Concentration
Source text: as §3

S. aureus A9534 = experiment: MIC, agar dilution technique (Mueller-Hinton Agar); format: cell-based; conditions: Staphylococcus aureus, Gp-Ia, penicillin sensitive, read-out: Minimum Inhibitory Concentration
Source text: as §3

N[C@@H](C(=O)N[C@@H]1C(=O)N2C(C(=O)O)=C(Cl)CS[C@H]12)c1ccccc1 [cefaclor]
dose excreted at 2 h (Mouse urinary recovery; 0-2 hr): 60% | dose excreted at 4 h (Mouse urinary recovery; 2-4 hr): 6.7% | dose excreted at 6 h (Mouse urinary recovery; 4-6 hr): 0.3% | dose excreted at 24 h (Mouse urinary recovery; 6-24 hr, read-out: Mouse urinary recovery 6-24 hr): 1.5% | dose excreted at 24 h (Mouse urinary recovery; total, read-out: Mouse urinary recovery Total): 69% | MIC (S. pneumoniae A20759): 3.1 µg/mL (≈ 8.43 µM) | MIC (H. influenzae A20177): 0.8 µg/mL (≈ 2.18 µM) | MIC (N. meningitidis A20048): 0.8 µg/mL (≈ 2.18 µM) | MIC (N. gonorrheae A20143): 0.8 µg/mL (≈ 2.18 µM) | MIC (H. influenzae A9729): 0.8 µg/mL (≈ 2.18 µM) | MIC (H. influenzae A9833): 0.8 µg/mL (≈ 2.18 µM) | MIC (S. pyogenes A20065): 0.2 µg/mL (≈ 0.544 µM) | MIC (S. pneumoniae Type II): 0.8 µg/mL (≈ 2.18 µM) | MIC (S. pyogenes A20201): 0.2 µg/mL (≈ 0.544 µM) | MIC (S. pyogenes s-23): 0.2 µg/mL (≈ 0.544 µM) | MIC (N. meningitidis A21487): 0.8 µg/mL (≈ 2.18 µM) | MIC (H. influenzae A20193): 0.8 µg/mL (≈ 2.18 µM) | MIC (S. pneumoniae A9585): 0.8 µg/mL (≈ 2.18 µM) | MIC (N. gonorrheae A20155): 0.8 µg/mL (≈ 2.18 µM) | MIC (S. pyogenes A9604): 0.2 µg/mL (≈ 0.544 µM) | MIC (N. gonorrheae A15112): 0.8 µg/mL (≈ 2.18 µM) | MIC (N. meningitidis A21495): 0.8 µg/mL (≈ 2.18 µM) | MIC (H. influenzae A22482): 0.8 µg/mL (≈ 2.18 µM) | MIC (H. influenzae A21523): 0.8 µg/mL (≈ 2.18 µM) | MIC (S. pneumoniae A15069): 3.1 µg/mL (≈ 8.43 µM) | MIC (N. gonorrheae A20154): 0.8 µg/mL (≈ 2.18 µM) | MIC (S. pyogenes Dick): 0.2 µg/mL (≈ 0.544 µM) | MIC (S. pyogenes A15040): 0.2 µg/mL (≈ 0.544 µM) | MIC (H. influenzae A22483): 0.8 µg/mL (≈ 2.18 µM) | MIC (N. meningitidis A21497): 0.8 µg/mL (≈ 2.18 µM) | PD50 (protective dose) (E. coli Juhl [1]; im): 0.8 | PD50 (protective dose) (E. coli Juhl [1]; po): 1.1 | PD50 (protective dose) (S. aureus Smith [2]): 0.20 | MIC (E. coli A20341-1): 6.3 µg/mL (≈ 17.1 µM) | MIC (E. coli A15148): 25 µg/mL (≈ 68 µM) | MIC (E. coli Juhl [3]): 0.8 µg/mL (≈ 2.18 µM) | MIC (K. pneumoniae A20346): 6.3 µg/mL (≈ 17.1 µM) | MIC (S. aureus A9602): 3.1 µg/mL (≈ 8.43 µM) | MIC (S. aureus A9497): 0.8 µg/mL (≈ 2.18 µM) | MIC (S. aureus BX-1633-2): 6.3 µg/mL (≈ 17.1 µM) | MIC (S. aureus Smith [4]): 0.8 µg/mL (≈ 2.18 µM) | MIC (E coli RGN-823): 25 µg/mL (≈ 68 µM) | MIC (S. aureus A15092): 6.3 µg/mL (≈ 17.1 µM) | MIC (E. coli A9660): 0.8 µg/mL (≈ 2.18 µM) | MIC (K. pneumoniae D11): 0.8 µg/mL (≈ 2.18 µM) | MIC (S. aureus Russell): 3.1 µg/mL (≈ 8.43 µM) | MIC (S. aureus Terajima): 0.4 µg/mL (≈ 1.09 µM) | MIC (S. aureus No. 193): 6.3 µg/mL (≈ 17.1 µM) | MIC (S. aureus A9534): 0.8 µg/mL (≈ 2.18 µM)
